Here are results for three molecules from ChEMBL document CHEMBL1131716, “Heterocycle-peptide hybrid compounds. Aminotriazole-containing agonists of the thrombin receptor (PAR-1)” (Bioorg Med Chem Lett, 1999).

Molecules are shown by their SMILES.

Test [1] has as its target T1, Proteinase-activated receptor 1 (Homo sapiens, UniProt P25116).
T1 sequence (P25116 whole entry): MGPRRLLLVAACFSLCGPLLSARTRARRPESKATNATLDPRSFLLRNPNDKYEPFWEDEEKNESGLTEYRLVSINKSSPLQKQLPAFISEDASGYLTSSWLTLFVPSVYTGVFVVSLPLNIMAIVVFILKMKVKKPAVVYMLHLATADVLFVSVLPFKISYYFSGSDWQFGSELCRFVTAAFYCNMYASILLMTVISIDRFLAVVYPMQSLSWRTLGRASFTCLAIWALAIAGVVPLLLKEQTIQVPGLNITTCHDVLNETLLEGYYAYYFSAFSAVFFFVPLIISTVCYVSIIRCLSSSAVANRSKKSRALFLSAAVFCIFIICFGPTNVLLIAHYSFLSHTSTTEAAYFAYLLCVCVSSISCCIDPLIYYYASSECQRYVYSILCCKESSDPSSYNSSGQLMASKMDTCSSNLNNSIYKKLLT
The test is described as follows: Inhibition of [3H]S-(p-F-Phe)-Har-L-Har-KY-NH2 binding to Thrombin receptor 1 (PAR-1) on membranes from CHRF cells. In kind it is cell membranes.

The species entered for a further test is Homo sapiens. The test is described as follows: Antagonist activity by using human gel-filtered platelet aggregation. In kind it is functional.
The target in test [2] is T1, Proteinase-activated receptor 1. The test is described as follows: Inhibition of [3H]S-(p-F-Phe)-Har-L-Har-KY-NH2 binding to thrombin receptor (PAR-1) on membranes from CHRF cells. In kind it is cell membranes.

As to `N=C(N)NCCC[C@H](NC(=O)[C@H](CC1CCCCC1)NC(=O)c1n[nH]c(NC(=O)/C=C/c2ccccc2Cl)n1)C(=O)N[C@@H](Cc1ccccc1)C(N)=O`, the IC50 (as a rule, the point on the concentration scale where inhibition reaches its midpoint) in test [1] stood at 1.4 µM; in the test filed under Homo sapiens, 3.6 µM.
With `N=C(N)NCCC[C@H](NC(=O)[C@H](CC1CCCCC1)NC(=O)c1n[nH]c(NC(=O)/C=C/c2cccc3ccccc23)n1)C(=O)N[C@@H](Cc1ccccc1)C(N)=O`, the IC50 in test [2] was determined as 16 µM; in the test listed under Homo sapiens, 5.4 µM.
For the molecule `N=C(N)NCCC[C@H](NC(=O)[C@H](CC1CCCCC1)NC(=O)c1n[nH]c(NC(=O)/C=C/c2ccccc2)n1)C(=O)N[C@@H](Cc1ccccc1)C(N)=O`, the results for the IC50 (in test [1]; in the test filed under Homo sapiens) were 6.4 µM and 9.8 µM, respectively.
